Experimental data taken from the supplement of paper PMC10307832.

Experiments:
Assay in all cases: relative viability (nuclei count vs DMSO), 5 days (fraction); higher = more cells survive
MK-8033 + Decitabine = compound: Cn1cc(-c2cnc3ccc4ccc(CS(=O)(=O)NCc5ccccn5)cc4c(=O)c3c2)cn1 [MK-8033] + Nc1ncn([C@H]2C[C@H](O)[C@@H](CO)O2)c(=O)n1 [Decitabine] (partner 2 µM)
Summary of the method: (§1)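 Relative viability was taken as the ratio of nuclei in treated wells to nuclei in vehicle wells. Lung cancer cell lines in 1536-well plates received compounds by pin tool one day after seeding, either one drug alone or a fixed anchor-drug dose plus five library-drug doses (not always all listed) in √10 steps. Nuclei were counted on 4× images after 5 days of treatment, and values are medians of duplicate plates.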

RU-SKI 43 + Tozasertib = compound: CC[C@@H](C)CNCC(=O)N1CCC2=C([C@@H]1COC3=CC=CC(=C3)C)C=CS2 [RU-SKI 43] + Cc1cc(Nc2cc(N3CCN(C)CC3)nc(Sc3ccc(NC(=O)C4CC4)cc3)n2)n[nH]1 [Tozasertib] (partner 0.1 µM)
Summary of the method: as §1

Irinotecan + OSI-027 = compound: CCc1c2c(nc3ccc(OC(=O)N4CCC(N5CCCCC5)CC4)cc13)-c1cc3c(c(=O)n1C2)COC(=O)[C@]3(O)CC [Irinotecan] + COc1cccc2cc(-c3nc([C@H]4CC[C@H](C(=O)O)CC4)n4ncnc(N)c34)[nH]c12 [OSI-027] (partner 0.5 µM)
Summary of the method: as §1

MK-8033 + Linsitinib = compound: Cn1cc(-c2cnc3ccc4ccc(CS(=O)(=O)NCc5ccccn5)cc4c(=O)c3c2)cn1 [MK-8033] + C[C@]1(O)C[C@@H](c2nc(-c3ccc4ccc(-c5ccccc5)nc4c3)c3c(N)nccn32)C1 [Linsitinib] (partner 1 µM)
Summary of the method: as §1

Cell Line | relative viability (MK-8033 + Decitabine; first compound 0.02 µM) | relative viability (MK-8033 + Decitabine; first compound 0.06325 µM) | relative viability (MK-8033 + Decitabine; first compound 0.2 µM) | relative viability (MK-8033 + Decitabine; first compound 0.6325 µM) | relative viability (MK-8033 + Decitabine; first compound 2 µM) | relative viability (RU-SKI 43 + Tozasertib; first compound 0.1 µM) | relative viability (RU-SKI 43 + Tozasertib; first compound 0.3162 µM) | relative viability (RU-SKI 43 + Tozasertib; first compound 1 µM) | relative viability (RU-SKI 43 + Tozasertib; first compound 3.162 µM) | relative viability (RU-SKI 43 + Tozasertib; first compound 10 µM) | relative viability (Irinotecan + OSI-027; first compound 0.6325 µM) | relative viability (Irinotecan + OSI-027; first compound 2 µM) | relative viability (Irinotecan + OSI-027; first compound 6.325 µM) | relative viability (Irinotecan + OSI-027; first compound 20 µM) | relative viability (MK-8033 + Linsitinib; first compound 0.02 µM) | relative viability (MK-8033 + Linsitinib; first compound 0.06325 µM) | relative viability (MK-8033 + Linsitinib; first compound 0.2 µM) | relative viability (MK-8033 + Linsitinib; first compound 0.6325 µM) | relative viability (MK-8033 + Linsitinib; first compound 2 µM)
NCI-H522 | 0.552 | 0.617 | 0.73 | 0.612 | 0.725 | 0.566 | 0.544 | 0.581 | 0.537 | 0.524 | 1.07 | 0.643 | 0.645 | 0.569 | – | – | – | – | –
NCI-H358 | 0.205 | 0.192 | 0.211 | 0.261 | 0.198 | 0.109 | 0.106 | 0.0941 | 0.103 | 0.0859 | 0.715 | 0.377 | 0.217 | 0.125 | 0.826 | 0.704 | 0.731 | 0.658 | 0.651
NCI-H1755 | 0.743 | 0.673 | 0.769 | 0.64 | 0.691 | 0.622 | 0.651 | 0.602 | 0.571 | 0.496 | 0.378 | 0.652 | 0.381 | 0.42 | 0.996 | 0.993 | 0.954 | 0.988 | 0.946
LCLC-103H | 0.699 | 0.724 | 0.673 | 0.736 | 0.766 | 0.411 | 0.445 | 0.498 | 0.501 | 0.373 | 0.483 | 0.496 | 0.339 | 0.347 | 1.01 | 1.04 | 1.05 | 1.11 | 1.17
HOP-62 | 0.222 | 0.234 | 0.261 | 0.189 | 0.199 | 0.359 | 0.371 | 0.479 | 0.344 | 0.287 | 0.48 | 0.768 | 0.224 | 0.22 | 0.62 | 0.99 | 0.898 | 0.895 | 1.01
HCC-78 | 0.657 | 0.728 | 0.645 | 0.559 | 0.692 | 0.395 | 0.569 | 0.432 | 0.406 | 0.318 | 0.37 | 0.35 | 0.229 | 0.235 | 0.474 | 0.501 | 0.474 | – | 0.581
NCI-H650 | 0.335 | 0.329 | 0.306 | 0.323 | 0.323 | 0.724 | 0.717 | 0.765 | 0.709 | 0.654 | 0.467 | 0.587 | 0.316 | 0.277 | 0.868 | 0.91 | 0.85 | 0.805 | 0.773
NCI-H1563 | – | – | – | – | – | – | – | – | – | – | 0.704 | 0.843 | 0.865 | 0.589 | 1.26 | 1.15 | 1.13 | 1.23 | 1.19
ABC-1 | 1.1 | 0.976 | 1.07 | 1.01 | 1.26 | 0.16 | 0.172 | 0.18 | 0.166 | 0.185 | – | 0.494 | 0.341 | 0.093 | 0.744 | 0.791 | 0.676 | 0.829 | 0.657
Calu-6 | – | – | – | – | – | – | – | – | – | – | – | – | – | – | 0.895 | 0.96 | 0.874 | 1.01 | 0.876
EBC-1 | – | – | – | – | – | – | – | – | – | – | – | – | – | – | 0.938 | 0.68 | 0.895 | 1.05 | 0.167
NCI-H520 | 0.525 | 0.485 | 0.527 | 0.535 | 0.465 | 0.456 | 0.422 | 0.428 | 0.401 | 0.408 | 0.292 | 0.316 | 0.218 | 0.192 | 0.994 | 0.876 | 0.844 | 0.925 | 0.991
NCI-H322M | 0.74 | 0.663 | 0.742 | 0.762 | 0.747 | 0.516 | 0.502 | 0.47 | 0.518 | 0.394 | 0.414 | 0.479 | 0.521 | 0.216 | 0.964 | 0.809 | 0.869 | 0.996 | 0.692
201T | 0.9 | 0.868 | 0.851 | 0.873 | 0.876 | 0.883 | 1.03 | 0.883 | 0.931 | 0.812 | 0.723 | 0.643 | 0.344 | 0.153 | 1.13 | 0.916 | 0.979 | 1 | 1.02
RERF-LC-KJ | 0.501 | 0.712 | 0.682 | 0.756 | 0.686 | 0.458 | 0.583 | 0.476 | 0.505 | 0.352 | 0.364 | 0.492 | 0.534 | 0.112 | 0.885 | 0.902 | 0.836 | 0.908 | 0.938
A549 | 0.263 | 0.319 | 0.474 | 0.156 | 0.305 | – | – | – | – | – | – | – | – | – | 0.627 | 0.571 | 0.52 | 0.515 | 0.581
NCI-H1648 | 0.402 | – | 0.543 | 0.515 | 0.468 | – | – | 0.428 | 0.484 | 0.4 | 0.238 | 0.242 | 0.255 | 0.268 | – | – | – | – | –
NCI-H1623 | – | – | – | – | – | 0.447 | 0.42 | 0.71 | 0.386 | 0.399 | 0.415 | 0.415 | 0.303 | 0.294 | – | – | – | – | –
NCI-H1651 | 0.706 | 0.606 | 0.653 | 0.694 | 0.649 | 0.649 | 0.722 | 0.839 | 0.642 | 0.572 | 0.532 | 0.485 | 0.349 | 0.174 | 1.07 | 0.835 | 0.824 | 1.03 | 0.856
NCI-H2405 | 0.776 | 0.703 | 0.67 | 0.701 | 0.746 | 0.73 | 0.705 | 0.713 | 0.701 | 0.629 | – | 0.596 | 0.382 | 0.289 | 0.882 | 0.91 | 0.783 | 0.831 | 0.957
